Reference: US11753407B2, “Compounds for treating spinal muscular atrophy” (PTC Therapeutics, Inc., priority 2012, dated 2023)

Experiments:
[1] = test system: SMN2 minigene mRNA (SMN2-A minigene) in HEK293H cells; assay: SMN2 minigene mRNA splicing RT-qPCR assay in cultured cells; type: cell-based, human; settings: Homo sapiens, HEK293-H; concentration increasing full length SMN2 mRNA 1.5-fold relative to vehicle-treated cells; HEK293H cells with SMN2-A minigene, 24 hours, 7-point concentration data; read-out: EC1.5x for production of full length SMN2 mRNA
Method in brief: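 HEK293H cells stably carrying SMN2-A minigene treated with compounds (7-point, 3.16-fold dilutions, duplicates) for 24 h at 37 °C. Full-length exon 7-containing minigene mRNA measured by multiplex RT-qPCR with GAPDH, normalized and expressed relative to vehicle (modified ΔΔCt); EC1.5× is concentration giving 1.5-fold increase.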

[2] = test system: Smn protein in SMA patient fibroblast cells (GM03813); assay: Smn protein assay in cultured cells (SMN HTRF); type: cell-based, human; settings: SMA patient fibroblast cells, 48 hours; for EC1.5x for Smn protein expression: 7-point concentration curve, SMN HTRF, concentration producing 1.5 times Smn protein vs DMSO vehicle control; for maximum fold (Fold) increase of Smn protein: 7-point concentration data, fold relative to vehicle control
Method in brief: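 SMA patient fibroblasts (5,000/well, DMEM-10% FBS) treated 48 h at 37° C with 7-point, 3.16-fold compound series in triplicate; lysates read by SMN HTRF (665/620 nm ratio). Fold Smn increase over DMSO vehicle derived; EC1.5× is concentration giving 1.5-fold Smn, with maximum fold also reported.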

Compound | melting point [°C] | EC (1.5-fold increase) [1] [µM] | EC1.5x for Smn protein expression [2] | maximum fold (Fold) increase of Smn protein [2]
COc1ccc(-c2cc(=O)n3cc(C4=CCN(C)CC4)cc(C)c3n2)cc1F [Compound 315, 2-(3-fluoro-4-methoxyphenyl)-9-methyl-7-(1-methyl-1,2,3,6-tetrahydropyridin-4-yl)-4H-pyrido[1,2-a]pyrimidin-4-one] | 184 to 190 | < 0.1 | – | *** (a fold increase between >1.35 and ≤1.5 is indicated by three stars (***))
CCN1CC=C(c2ccc3nc(-c4cc(F)c5nc(C)oc5c4)cc(=O)n3c2)CC1 [Compound 318, 7-(1-ethyl-1,2,3,6-tetrahydropyridin-4-yl)-2-(4-fluoro-2-methyl-1,3-benzoxazol-6-yl)-4H-pyrido[1,2-a]pyrimidin-4-one] | 151 to 154 | < 0.1 | **** (an EC1.5x≤0.3 μM is indicated by four stars (****)) | ***** (a fold increase >1.65 is indicated by five stars (*****))
CCCN1CC=C(c2ccc3nc(-c4cc(F)c5nc(C)oc5c4)cc(=O)n3c2)CC1 [Compound 319, 2-(4-fluoro-2-methyl-1,3-benzoxazol-6-yl)-7-(1-propyl-1,2,3,6-tetrahydropyridin-4-yl)-4H-pyrido[1,2-a]pyrimidin-4-one] | 159 to 162 | < 0.1 | **** (an EC1.5x≤0.3 μM is indicated by four stars (****)) | **** (a fold increase between >1.5 and ≤1.65 is indicated by four stars (****))
Cc1nc2ccc(-c3cc(=O)n4cc(N5CCN(C)[C@@H](C)C5)ccc4c3)cc2o1 [Compound 325, 7-[(3S)-3,4-dimethylpiperazin-1-yl]-2-(2-methyl-1,3-benzoxazol-6-yl)-4H-quinolizin-4-one] | > 300 | 0.3 to 1 | – | *** (a fold increase between >1.35 and ≤1.5 is indicated by three stars (***))
Cc1nc2ccc(-c3cc(=O)n4cc(N5CCC(N)CC5)ccc4c3)cc2o1 [Compound 326, 7-(4-aminopiperidin-1-yl)-2-(2-methyl-1,3-benzoxazol-6-yl)-4H-quinolizin-4-one] | 288 to 290 | 1 to 3 | ** (an EC1.5× between >1 μM and ≤3 μM is indicated by two stars (**)) | *** (a fold increase between >1.35 and ≤1.5 is indicated by three stars (***))
COc1ccc(-c2cc(=O)n3cc(N4CCN[C@@H](C)C4)cc(C)c3n2)cc1F [Compound 327, 2-(3-fluoro-4-methoxyphenyl)-9-methyl-7-[(3S)-3-methylpiperazin-1-yl]-4H-pyrido[1,2-a]pyrimidin-4-one] | 198 to 202 | < 0.1 | **** (an EC1.5x≤0.3 μM is indicated by four stars (****)) | **** (a fold increase between >1.5 and ≤1.65 is indicated by four stars (****))
COc1ccc(-c2cc(=O)n3cc(N4CCC(N(C)C)CC4)cc(C)c3n2)cc1F [Compound 328, 7-[4-(dimethylamino)piperidin-1-yl]-2-(3-fluoro-4-methoxyphenyl)-9-methyl-4H-pyrido[1,2-a]pyrimidin-4-one] | 141 to 145 | < 0.1 | – | *** (a fold increase between >1.35 and ≤1.5 is indicated by three stars (***))

Further lines, with some results ahead:

melting point [°C] | Compound | EC (1.5-fold increase) [1] [µM] | EC1.5x for Smn protein expression [2] | maximum fold (Fold) increase of Smn protein [2]
177 to 184 | COc1ccc(-c2cc(=O)n3cc(N4CCN[C@H](C)C4)cc(C)c3n2)cc1OC [Compound 314, 2-(3,4-dimethoxyphenyl)-9-methyl-7-[(3R)-3-methylpiperazin-1-yl]-4H-pyrido[1,2-a]pyrimidin-4-one] | < 0.1 | *** (an EC1.5× between >0.3 μM and ≤1 μM is indicated by three stars (***)) | **** (a fold increase between >1.5 and ≤1.65 is indicated by four stars (****))
278 to 281 | COc1ccc(-c2ccc3nc(C4CCNCC4)cc(=O)n3c2)cc1F [Compound 316, 7-(3-fluoro-4-methoxyphenyl)-2-(piperidin-4-yl)-4H-pyrido[1,2-a]pyrimidin-4-one] | 0.1 to 0.3 | ** (an EC1.5× between >1 μM and ≤3 μM is indicated by two stars (**)) | ***** (a fold increase >1.65 is indicated by five stars (*****))
202 to 205 | COc1ccc(-c2ccc3nc(C4CCN(C)CC4)cc(=O)n3c2)cc1F [Compound 317, 7-(3-fluoro-4-methoxyphenyl)-2-(1-methylpiperidin-4-yl)-4H-pyrido[1,2-a]pyrimidin-4-one] | 0.3 to 1 | ** (an EC1.5× between >1 μM and ≤3 μM is indicated by two stars (**)) | **** (a fold increase between >1.5 and ≤1.65 is indicated by four stars (****))
288 to 290 | CCN1CCN(c2ccc3cc(-c4ccc5nc(C)oc5c4)cc(=O)n3c2)C[C@@H]1C [Compound 324, 7-[(3S)-4-ethyl-3-methylpiperazin-1-yl]-2-(2-methyl-1,3-benzoxazol-6-yl)-4H-quinolizin-4-one] | 0.3 to 1 | – | *** (a fold increase between >1.35 and ≤1.5 is indicated by three stars (***))
198 to 203 | COc1ccc(-c2cc(=O)n3cc(C4CCN(C)CC4)cc(C)c3n2)cc1F [Compound 329, 2-(3-fluoro-4-methoxyphenyl)-9-methyl-7-(1-methylpiperidin-4-yl)-4H-pyrido[1,2-a]pyrimidin-4-one] | < 0.1 | ** (an EC1.5× between >1 μM and ≤3 μM is indicated by two stars (**)) | **** (a fold increase between >1.5 and ≤1.65 is indicated by four stars (****))
141 | COc1ccc(-c2cc(=O)n3cc(N4CCC(NC5CC5)CC4)cc(C)c3n2)cc1OC [Compound 330, 7-[4-(cyclopropylamino)piperidin-1-yl]-2-(3,4-dimethoxyphenyl)-9-methyl-4H-pyrido[1,2-a]pyrimidin-4-one] | 0.1 to 0.3 | – | ** (a fold increase between >1.2 and ≤1.35 is indicated by two stars (**))
258 to 262 | Cc1cn2cc(-c3cc(=O)n4cc(N5CCN(C)[C@@H](C)C5)ccc4n3)cc(Cl)c2n1 [Compound 331, 2-(8-chloro-2-methylimidazo[1,2-a]pyridin-6-yl)-7-[(3S)-3,4-dimethylpiperazin-1-yl]-4H-pyrido[1,2-a]pyrimidin-4-one] | < 0.1 | **** (an EC1.5x≤0.3 μM is indicated by four stars (****)) | ***** (a fold increase >1.65 is indicated by five stars (*****))
225 to 233 | COc1ccc(-c2cc(=O)n3cc(N4C[C@@H](C)N[C@@H](C)C4)cc(C)c3n2)cc1OC [Compound 332, 2-(3,4-dimethoxyphenyl)-7-[(3R,5S)-3,5-dimethylpiperazin-1-yl]-9-methyl-4H-pyrido[1,2-a]pyrimidin-4-one] | 0.3 to 1 | – | * (A maximum fold increase of ≤1.2 is indicated by one star (*))
